# pEC50: −log10 of the molar value.
# Assays:
# [1] = Protein binding in rat plasma at 200 to 1000 ng/ml incubated for 15 mins by LC/MS/MS based ultracentrifugation method; assay type: ADME, cell-free; conditions: read-out: PPB (converted)
# [2] = biological target: T1, Glucagon-like peptide 2 receptor (Homo sapiens, UniProt O95838); test: Agonist activity at human GLP2R expressed in HEK293 cells after 5 hrs by luciferase reporter gene assay; assay type: cell-based
# T1 sequence (O95838 whole entry): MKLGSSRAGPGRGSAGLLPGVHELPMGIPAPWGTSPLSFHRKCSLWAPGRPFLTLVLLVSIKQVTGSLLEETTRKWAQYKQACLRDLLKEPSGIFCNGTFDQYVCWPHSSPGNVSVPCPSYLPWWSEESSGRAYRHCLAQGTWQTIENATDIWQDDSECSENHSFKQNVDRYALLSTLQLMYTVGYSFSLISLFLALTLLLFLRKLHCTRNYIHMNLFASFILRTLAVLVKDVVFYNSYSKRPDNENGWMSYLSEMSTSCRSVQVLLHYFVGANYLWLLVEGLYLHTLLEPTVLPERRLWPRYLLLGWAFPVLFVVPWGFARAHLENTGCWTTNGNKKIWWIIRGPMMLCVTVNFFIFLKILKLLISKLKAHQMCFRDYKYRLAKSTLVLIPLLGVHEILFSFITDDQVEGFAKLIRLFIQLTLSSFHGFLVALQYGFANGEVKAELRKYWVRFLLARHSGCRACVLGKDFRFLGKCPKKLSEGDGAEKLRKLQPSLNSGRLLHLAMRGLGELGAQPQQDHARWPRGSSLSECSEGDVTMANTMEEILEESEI
# HEK293 = test: Selectivity ratio of EC50 for human GLP1R expressed in HEK293 cells to EC50 for human GLP2R expressed in HEK293; assay type: cell-based
# [3] = Systemic clearance in Sprague-Dawley rat at 0.2 mg/kg, iv through cassette dosing measured up to 300 mins by LC/MS/MS analysis; assay type: ADME, organism-based; conditions: in vivo
# [4] = biological target: Glucagon-like peptide 1 receptor (Homo sapiens, UniProt P43220); test: Agonist activity at human GLP1R expressed in HEK293 cells after 5 hrs by luciferase reporter gene assay; assay type: cell-based
# Sequence of Glucagon-like peptide 1 receptor (P43220 whole entry): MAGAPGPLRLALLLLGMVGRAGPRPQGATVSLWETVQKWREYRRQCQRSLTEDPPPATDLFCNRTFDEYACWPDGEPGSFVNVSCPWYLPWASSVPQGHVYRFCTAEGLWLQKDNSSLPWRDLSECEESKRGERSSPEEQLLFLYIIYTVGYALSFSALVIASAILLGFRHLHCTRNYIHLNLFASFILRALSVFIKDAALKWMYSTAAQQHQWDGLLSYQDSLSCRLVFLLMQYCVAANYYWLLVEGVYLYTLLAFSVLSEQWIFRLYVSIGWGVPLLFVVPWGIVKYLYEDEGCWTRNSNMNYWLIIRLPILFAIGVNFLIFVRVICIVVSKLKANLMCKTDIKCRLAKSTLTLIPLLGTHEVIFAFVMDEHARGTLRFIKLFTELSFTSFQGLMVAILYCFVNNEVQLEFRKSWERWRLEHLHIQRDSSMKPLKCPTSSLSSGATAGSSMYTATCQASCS
fraction unbound at 0.25 h [1],pEC50 [2],clearance [3],pEC50 [4],SMILES,Ratio EC50 (HEK293)
0.016,10.22,0.17 mL/min/kg,< 6.00,CCCCC(NC(=O)[C@H](CCC(=O)O)NC(=O)[C@H](CC(=O)O)NC(=O)[C@H](CO)NC(=O)[C@H](Cc1ccccc1)NC(=O)[C@H](CO)NC(=O)CNC(=O)[C@H](CC(=O)O)NC(=O)CNC(=O)[C@@H](N)Cc1cnc[nH]1)C(=O)N[C@H](Cc1ccccc1)C(=O)N[C@H](C(=O)N[C@H](C(=O)N[C@@H](CC(C)C)C(=O)N[C@@H](CC(=O)O)C(=O)N[C@@H](CC(C)C)C(=O)N[C@@H](CC(C)C)C(=O)N[C@@H](C)C(=O)N[C@@H](C)C(=O)N[C@@H](CCCNC(=N)N)C(=O)N[C@@H](CC(=O)O)C(=O)N[C@@H](Cc1ccccc1)C(=O)N[C@H](C(=O)N[C@@H](CC(N)=O)C(=O)N[C@@H](Cc1c[nH]c2ccccc12)C(=O)N[C@@H](CC(C)C)C(=O)N[C@H](C(=O)N[C@@H](CCC(N)=O)C(=O)N[C@H](C(=O)N[C@@H](CCCCN)C(=O)N[C@H](C(=O)N[C@H](C(=O)N[C@@H](CC(=O)O)C(=O)NCC(C)C)[C@@H](C)O)[C@@H](C)CC)[C@@H](C)O)[C@@H](C)CC)[C@@H](C)CC)[C@@H](C)CC)[C@@H](C)O (some centres not stated),> 16000
0.338,–,25 mL/min/kg,6.28,CC[C@H](C)[C@H](NC(=O)[C@H](Cc1ccccc1)NC(=O)[C@H](CC(=O)O)NC(=O)[C@H](CCCN=C(N)N)NC(=O)[C@H](C)NC(=O)[C@H](C)NC(=O)[C@H](CC(C)C)NC(=O)[C@H](CC(N)=O)NC(=O)[C@H](CC(=O)O)NC(=O)[C@H](CC(C)C)NC(=O)[C@@H](NC(=O)[C@@H](NC(=O)[C@H](CC(N)=O)NC(=O)[C@H](CCSC)NC(=O)[C@H](CCC(=O)O)NC(=O)[C@H](CC(=O)O)NC(=O)[C@H](CO)NC(=O)[C@H](Cc1ccccc1)NC(=O)[C@H](CO)NC(=O)CNC(=O)[C@H](CC(=O)O)NC(=O)[C@H](C)NC(=O)[C@@H](N)Cc1cnc[nH]1)[C@@H](C)O)[C@@H](C)CC)C(=O)N[C@@H](CC(N)=O)C(=O)N[C@@H](Cc1c[nH]c2ccccc12)C(=O)N[C@@H](CC(C)C)C(=O)N[C@H](C(=O)N[C@@H](CCC(N)=O)C(=O)N[C@H](C(=O)N[C@@H](CCCCN)C(=O)N[C@H](C(=O)N[C@H](C(=O)N[C@@H](CC(=O)O)C(=O)O)[C@@H](C)O)[C@@H](C)CC)[C@@H](C)O)[C@@H](C)CC,–
0.005,10.52,0.28 mL/min/kg,< 6.00,CCCC[C@H](NC(=O)[C@H](CCC(=O)O)NC(=O)[C@H](CC(=O)O)NC(=O)[C@H](CO)NC(=O)[C@H](Cc1ccccc1)NC(=O)[C@H](CO)NC(=O)CNC(=O)[C@H](CC(=O)O)NC(=O)CNC(=O)[C@@H](N)Cc1cnc[nH]1)C(=O)N[C@H](Cc1ccccc1)C(=O)N[C@H](C(=O)N[C@H](C(=O)N[C@@H](CC(C)C)C(=O)N[C@@H](CC(=O)O)C(=O)N[C@@H](CC(C)C)C(=O)N[C@@H](CC(C)C)C(=O)N[C@@H](C)C(=O)N[C@@H](C)C(=O)N[C@@H](CCCNC(=N)N)C(=O)N[C@@H](CC(=O)O)C(=O)N[C@@H](Cc1ccccc1)C(=O)N[C@H](C(=O)N[C@@H](CC(N)=O)C(=O)N[C@@H](Cc1c[nH]c2ccccc12)C(=O)N[C@@H](CC(C)C)C(=O)N[C@H](C(=O)N[C@@H](CCC(N)=O)C(=O)N[C@H](C(=O)N[C@@H](CCCCN)C(=O)N[C@H](C(=O)N[C@H](C(=O)N[C@@H](CC(=O)O)C(=O)O)[C@@H](C)O)[C@@H](C)CC)[C@@H](C)O)[C@@H](C)CC)[C@@H](C)CC)[C@@H](C)CC)[C@@H](C)O,–

# — ChEMBL document CHEMBL3822442, “Synthesis and Pharmacological Characterization of Novel Glucagon-like Peptide-2 (GLP-2) Analogues with Low Systemic Clearance” (J Med Chem, 2016)
